Experimental data: patent US20250313563A1, “GLYCOGEN SYNTHASE KINASE 3 INHIBITORS AND USES THEREOF” (The Broad Institute, Inc., priority 2022, published 2025)
Read-outs that look alike come from different tables or passages of the source.

Experiments:
[1] = biological target: GSK3α (GST-full length GSK3α) (Homo sapiens (Human), UniProt P49840); assay: GSK3α TR-FRET kinase assay; type: biochemical
Method in brief: (§1)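 Compound preincubated 30 min, then 1 nM GST-full-length GSK3α or GSK3b run 100 min at ambient temperature with 200 nM biotinylated, S645-prephosphorylated glycogen synthase 631-650 peptide in Tris pH 7.5, MgCl2, DTT, BSA, 1% DMSO. ATP 4 μM (α) or 2 μM (β), or 1 mM. EDTA-quenched; Tb-anti-pSer641/streptavidin-d2 TR-FRET 665/615 ratio gave IC50.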

[2] = biological target: GSK3b (GST-full length GSK3b) (Homo sapiens (Human), UniProt P49841); assay: GSK3b TR-FRET kinase assay; type: biochemical
GSK3b (GST-full length GSK3b), sequence (P49841 whole entry): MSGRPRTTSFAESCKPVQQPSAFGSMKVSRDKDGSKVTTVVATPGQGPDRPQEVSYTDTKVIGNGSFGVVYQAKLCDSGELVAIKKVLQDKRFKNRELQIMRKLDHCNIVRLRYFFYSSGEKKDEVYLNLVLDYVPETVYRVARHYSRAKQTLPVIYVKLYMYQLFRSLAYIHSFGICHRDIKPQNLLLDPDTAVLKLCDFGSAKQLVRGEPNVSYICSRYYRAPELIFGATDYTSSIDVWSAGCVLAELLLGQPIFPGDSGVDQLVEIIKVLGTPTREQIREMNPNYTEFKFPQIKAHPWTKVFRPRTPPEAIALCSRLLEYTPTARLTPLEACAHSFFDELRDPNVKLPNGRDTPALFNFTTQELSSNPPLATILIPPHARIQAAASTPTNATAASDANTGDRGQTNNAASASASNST
Method in brief: as §1

[3] = 1 nM GSK3α, 4 μM ATP, 30 minute preincubation, read-out: GSK3-A TR-FRET BIOCHEMICAL (TR-FRET), IC50
[4] = GSK3-A (TR-FRET 1 mM ATP), GMean, IC50, 1 mM ATP, geometric mean
[5] = 1 nM GSK3b, 2 μM ATP, 30 minute preincubation, read-out: GSK3-B TR-FRET BIOCHEMICAL (TR-FRET), IC50
[6] = GSK3-B (TR-FRET 1 mM ATP), GMean, IC50, 1 mM ATP, geometric mean
[7] = 1 nM GSK3α, 4 μM ATP, 30 minute preincubation, Table 16, read-out: GSK3-A TR-FRET BIOCHEMICAL (TR-FRET)
[8] = 1 nM GSK3b, 2 μM ATP, 30 minute preincubation, Table 16, read-out: GSK3-B TR-FRET BIOCHEMICAL (TR-FRET)
[9] = 1 nM GSK3α, 4 μM ATP, 30 minute preincubation, Table 16, read-out: GSK3-A TR-FRET BIOCHEMICAL (TR-FRET), IC50
[10] = 1 nM GSK3b, 2 μM ATP, 30 minute preincubation, Table 16, read-out: GSK3-B TR-FRET BIOCHEMICAL (TR-FRET), IC50
[11] = read-out: GSK3-A (TR-FRET 1 mM ATP), GMean, IC50, 1 mM ATP, geometric mean
[12] = read-out: GSK3-B (TR-FRET 1 mM ATP), GMean, IC50, 1 mM ATP, geometric mean

GSK3α (GST-full length GSK3α), sequence (P49840 whole entry): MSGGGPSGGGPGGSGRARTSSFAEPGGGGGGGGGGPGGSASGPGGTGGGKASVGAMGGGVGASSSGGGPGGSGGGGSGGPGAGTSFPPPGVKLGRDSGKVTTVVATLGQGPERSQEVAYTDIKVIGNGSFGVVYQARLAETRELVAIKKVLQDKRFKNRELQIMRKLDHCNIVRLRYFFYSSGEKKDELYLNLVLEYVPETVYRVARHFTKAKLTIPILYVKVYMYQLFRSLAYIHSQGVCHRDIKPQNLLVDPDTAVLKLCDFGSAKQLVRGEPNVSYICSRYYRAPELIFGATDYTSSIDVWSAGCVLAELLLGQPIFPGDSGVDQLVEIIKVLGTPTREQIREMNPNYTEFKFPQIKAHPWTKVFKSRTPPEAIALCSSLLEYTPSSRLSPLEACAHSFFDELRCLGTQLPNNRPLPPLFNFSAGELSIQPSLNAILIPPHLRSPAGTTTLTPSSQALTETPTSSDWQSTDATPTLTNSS

SMILES	IC50 [1, 9] [µM]	IC50 [2, 10] [µM]	other results
CC1(C)CC(=O)C2=C(C1)Nc1n[nH]cc1[C@]21CCN(S(=O)(=O)c2ccccc2)C1 [Compound 951787]	–	–	IC50 [1, 3]: ≤ 0.1 µM; IC50 [1, 4]: ≤ 0.1 µM; IC50 [2, 5]: ≤ 0.1 µM; IC50 [2, 6]: 0.1 to 1 µM
CC1(C)CC(=O)C2=C(C1)Nc1n[nH]cc1[C@@]21CCN(S(=O)(=O)c2ccccc2)C1 [Compound 951788]	–	–	IC50 [1, 7]: ≤ 0.1 µM; IC50 [1, 4]: 0.1 to 1 µM; IC50 [2, 8]: ≤ 0.1 µM; IC50 [2, 6]: 1 to 5 µM
COc1cccc(S(=O)(=O)N2CC[C@]3(C2)C2=C(CC(C)(C)CC2=O)Nc2n[nH]cc23)c1 [Compound 951789]	–	–	IC50 [1, 3]: ≤ 0.1 µM; IC50 [1, 4]: 0.1 to 1 µM; IC50 [2, 5]: ≤ 0.1 µM; IC50 [2, 6]: 0.1 to 1 µM
COc1cccc(S(=O)(=O)N2CC[C@@]3(C2)C2=C(CC(C)(C)CC2=O)Nc2n[nH]cc23)c1 [Compound 951790]	–	–	IC50 [1, 7]: ≤ 0.1 µM; IC50 [2, 8]: ≤ 0.1 µM
CCC1(c2cccc(-c3cnn(CC4CCOC4)c3)c2)C2=C(CC(C)(C)NC2=O)Nc2n[nH]cc21 (centres unmarked) [Compound 951836]	0.1 to 1	1 to 5	–
CC[C@]1(c2cccc(-c3cnn(-c4ccccc4)c3C(F)(F)F)c2)C2=C(CC(C)(C)NC2=O)Nc2n[nH]cc21 [Compound 951837]	0.1 to 1	0.1 to 1	–
CC[C@]1(c2cccc(-c3cnn(Cc4ccc(OC)cc4)c3)c2)C2=C(CC(C)(C)NC2=O)Nc2n[nH]cc21 [Compound 951838]	0.1 to 1	1 to 5	–
CC1(C)CC(=O)C2=C(Nc3n[nH]cc3C23CCN(S(=O)(=O)c2ccccc2C(F)F)CC3)[C@H]1F [Compound 951839]	–	–	IC50 [1, 7]: ≤ 0.1 µM; IC50 [2, 8]: 0.1 to 1 µM
CCC1(c2cccc(-c3cc(C(C)C)nn3C)c2)C2=C(CC(C)(C)NC2=O)Nc2n[nH]cc21 (centres unmarked) [Compound 951842]	0.1 to 1	1 to 5	–
CC[C@]1(c2cccc(-c3cc(C(C)(C)C)nn3C)c2)C2=C(CC(C)(C)NC2=O)Nc2n[nH]cc21 [Compound 951843]	0.1 to 1	> 5	–
CC[C@]1(c2cccc(-c3c(C#N)c(C)nn3C)c2)C2=C(CC(C)(C)NC2=O)Nc2n[nH]cc21 [Compound 951844]	≤ 0.1	0.1 to 1	–
CC[C@@]1(c2cccc(-c3cc(C)nn3-c3ccccc3)c2)C2=C(CC(C)(C)NC2=O)Nc2n[nH]cc21 [Compound 951845]	0.1 to 1	0.1 to 1	–
CC1(C)CC(=O)C2=C(Nc3n[nH]cc3C23CCN(S(=O)(=O)c2ccccc2C(F)F)CC3)[C@@H]1F [Compound 951846]	–	–	IC50 [1, 7]: ≤ 0.1 µM; IC50 [2, 8]: 0.1 to 1 µM
CC[C@]1(c2cccc(-c3cnn(Cc4cccc(C(F)(F)F)c4)c3)c2)C2=C(CC(C)(C)NC2=O)Nc2n[nH]cc21 [Compound 951848]	≤ 0.1	0.1 to 1	–
CCC1(c2cccc(-c3cnn(Cc4ccc(C(F)(F)F)cc4)c3)c2)C2=C(CC(C)(C)NC2=O)Nc2n[nH]cc21 (centres unmarked) [Compound 951849]	≤ 0.1	0.1 to 1	–
CC1(C)CC(=O)C2=C(C1)Nc1n[nH]cc1[C@]21CCN(S(=O)(=O)c2cccc(F)c2)C1 [Compound 951861]	–	–	IC50 [1, 3]: ≤ 0.1 µM; IC50 [1, 4]: 0.1 to 1 µM; IC50 [2, 5]: ≤ 0.1 µM; IC50 [2, 6]: 0.1 to 1 µM
CC1(C)CC(=O)C2=C(C1)Nc1n[nH]cc1[C@@]21CCN(S(=O)(=O)c2cccc(F)c2)C1 [Compound 951862]	–	–	IC50 [1, 7]: ≤ 0.1 µM; IC50 [2, 8]: ≤ 0.1 µM
Cc1cccc(S(=O)(=O)N2CC[C@]3(C2)C2=C(CC(C)(C)CC2=O)Nc2n[nH]cc23)c1 [Compound 951863]	–	–	IC50 [1, 3]: ≤ 0.1 µM; IC50 [1, 4]: 0.1 to 1 µM; IC50 [2, 5]: ≤ 0.1 µM; IC50 [2, 6]: 0.1 to 1 µM
Cc1cccc(S(=O)(=O)N2CC[C@@]3(C2)C2=C(CC(C)(C)CC2=O)Nc2n[nH]cc23)c1 [Compound 951864]	–	–	IC50 [1, 7]: ≤ 0.1 µM; IC50 [1, 4]: 0.1 to 1 µM; IC50 [2, 8]: ≤ 0.1 µM; IC50 [2, 6]: 1 to 5 µM
CC[C@@]1(c2cccc(C(F)(F)F)c2)C2=C(CCN(c3cc(C)n(C)n3)C2=O)Nc2n[nH]cc21 [Compound 951939]	≤ 0.1	0.1 to 1	–
CC[C@]1(c2cccc(C(F)F)c2)C2=C(CC(C)(C)NC2=O)Nc2n[nH]c(C(F)(F)F)c21 [Compound 951946]	0.1 to 1	1 to 5	–
CCC1(c2cccc(C(F)F)c2)C2=C(CC(C)(C)NC2=O)Nc2n[nH]c(C(F)(F)F)c21 (centres unmarked) [Compound 951948]	≤ 0.1	≤ 0.1	IC50 [1, 11]: ≤ 0.1 µM; IC50 [2, 12]: 0.1 to 1 µM
CC[C@]1(c2cccc(C(F)(F)F)c2)C2=C(CCN(c3cc(C)n(C)n3)C2=O)Nc2n[nH]cc21 [Compound 951954]	> 5	> 5	–

SMILES	IC50 [1, 9] [µM]	IC50 [2, 10] [µM]	other results
CC[C@]1(c2cccc(-c3cnn(-c4ccncn4)c3)c2)C2=C(CC(C)(C)NC2=O)Nc2n[nH]cc21 [Compound 952016]	0.1 to 1	1 to 5	–
CC[C@]1(c2cccc(-c3cc(C(F)(F)F)nn3C)c2)C2=C(CC(C)(C)NC2=O)Nc2n[nH]cc21 [Compound 952018]	0.1 to 1	1 to 5	–
CC[C@]1(c2cccc(-c3cnn4c3OCCC4)c2)C2=C(CC(C)(C)NC2=O)Nc2n[nH]cc21 [Compound 952019]	≤ 0.1	0.1 to 1	–
CC[C@]1(c2cccc(-c3c(C)cnn3C)c2)C2=C(CC(C)(C)NC2=O)Nc2n[nH]cc21 [Compound 952021]	≤ 0.1	≤ 0.1	IC50 [1, 11]: 0.1 to 1 µM; IC50 [2, 12]: > 5 µM
CCC1(c2cccc(-c3cnn(CCN4CCCC4)c3)c2)C2=C(CC(C)(C)NC2=O)Nc2n[nH]cc21 (centres unmarked) [Compound 952022]	0.1 to 1	1 to 5	–
CCC1(c2cccc(-c3cc(C4CCCC4)nn3C)c2)C2=C(CC(C)(C)NC2=O)Nc2n[nH]cc21 (centres unmarked) [Compound 952023]	0.1 to 1	1 to 5	–
CC[C@]1(c2cccc(-c3cnn(-c4cccnc4)c3)c2)C2=C(CC(C)(C)NC2=O)Nc2n[nH]cc21 [Compound 952024]	0.1 to 1	> 5	–
CC[C@]1(c2cccc(-c3ccncc3C(F)(F)F)c2)C2=C(CC(C)(C)NC2=O)Nc2n[nH]cc21 [Compound 952025]	≤ 0.1	≤ 0.1	IC50 [1, 11]: ≤ 0.1 µM; IC50 [2, 12]: 1 to 5 µM
CCC1(c2cccc(N(C)c3ncccn3)c2)C2=C(CC(C)(C)C2=O)Nc2n[nH]cc21 (centres unmarked) [Compound 952205]	1 to 5	> 5	–
CCC1(c2cccc(-c3cnn(-c4cnccn4)c3)c2)C2=C(CC(C)(C)NC2=O)Nc2n[nH]cc21 (centres unmarked) [Compound 952207]	0.1 to 1	1 to 5	–
CC[C@]1(c2cccc(-c3cnn(CC(=O)N(C)C)c3)c2)C2=C(CC(C)(C)NC2=O)Nc2n[nH]cc21 [Compound 952208]	0.1 to 1	> 5	–
CCC1(c2cccc(-c3cnn(CC#N)c3)c2)C2=C(CC(C)(C)NC2=O)Nc2n[nH]cc21 (centres unmarked) [Compound 952210]	≤ 0.1	0.1 to 1	–
CC[C@@]1(c2cccc(N(C)c3ncccn3)c2)C2=C(CC(C)(C)C2=O)Nc2n[nH]cc21 [Compound 952212]	≤ 0.1	0.1 to 1	IC50 [1, 11]: 0.1 to 1 µM; IC50 [2, 12]: > 5 µM
CC[C@]1(c2cccc(C(F)(F)F)c2)C2=C(CCN(c3cnn(C)c3C)C2=O)Nc2n[nH]cc21 [Compound 952257]	≤ 0.1	0.1 to 1	–
CCC1(c2cccc(C(F)(F)F)c2)C2=C(CCN(c3cnn(C)c3C)C2=O)Nc2n[nH]cc21 (centres unmarked) [Compound 952262]	> 5	> 5	–
CC[C@]1(c2cccc(-c3c(C#N)cnn3C)c2)C2=C(CC(C)(C)NC2=O)Nc2n[nH]c(C)c21 [Compound 952410]	≤ 0.1	≤ 0.1	IC50 [1, 11]: 0.1 to 1 µM; IC50 [2, 12]: 1 to 5 µM
CC[C@]1(c2cccc(-c3cc(-c4ccccc4)nn3C(C)C)c2)C2=C(CC(C)(C)NC2=O)Nc2n[nH]cc21 [Compound 952411]	1 to 5	> 5	–
CC1(C)CC(=O)C2=C(C1)Nc1n[nH]cc1[C@@]21CC[C@H](C(F)(F)F)C1 [Compound 952434]	–	–	IC50 [1, 7]: 0.1 to 1 µM; IC50 [2, 8]: 0.1 to 1 µM
CC1(C)CC(=O)C2=C(C1)Nc1n[nH]cc1[C@]21CC[C@H](C(F)(F)F)C1 [Compound 952435]	–	–	IC50 [1, 7]: ≤ 0.1 µM; IC50 [2, 8]: 0.1 to 1 µM
CC1(C)CC(=O)C2=C(C1)Nc1n[nH]cc1[C@@]21CC[C@@H](C(F)(F)F)C1 [Compound 952436]	–	–	IC50 [1, 7]: ≤ 0.1 µM; IC50 [1, 4]: 1 to 5 µM; IC50 [2, 8]: ≤ 0.1 µM; IC50 [2, 6]: 1 to 5 µM
CC1(C)CC(=O)C2=C(C1)Nc1n[nH]cc1[C@]21CC[C@@H](C(F)(F)F)C1 [Compound 952437]	–	–	IC50 [1, 7]: 0.1 to 1 µM; IC50 [2, 8]: 0.1 to 1 µM
CC[C@@]1(c2cccc(C(F)(F)F)c2)C2=C(CCN(c3cn(C)c(C)n3)C2=O)Nc2n[nH]cc21 [Compound 952478]	1 to 5	> 5	–
CC[C@]1(c2cccc(C(F)(F)F)c2)C2=C(CCN(c3cn(C)c(C)n3)C2=O)Nc2n[nH]cc21 [Compound 952479]	> 5	> 5	–
